The subject of data set [1] is E. coli ATCC 25922. Conditions: cited from earlier work. From the text: (§1) Antimicrobial peptides (AMPs) are considered as promising alternatives to common antibiotics that threateningly lose their therapeutic potentials against multidrug-resistant pathogens (Fox, [2013]; Wang et al., [2015]). In contrast to approved therapeutic peptide hormones, antimicrobial peptides have to be administered at much higher doses, which may amplify general drawbacks of peptide therapeutics. For example, the diabetes peptide drugs exenatide and pramlintide are given at daily doses of 20 μg (Byetta®; ~0.5 μg/kg) and 120 μg (Symlin®; ~1.5 μg/kg; Heine et al., [2005]; Hay et al., [2015]) ... || Apidaecin analogs Api88 and Api137 are similarly active against Gram-negative bacteria with a tendency of higher activity of Api88 against K. pneumoniae (Czihal et al., [2012]; Berthold et al., [2013]). However, Api88 carries a C-terminal amide that is responsible for its very fast proteolytic cleavage in serum, the supernatant obtained after complete coagulation and centrifugation of blood. The in vitro serum stability assay, which is an important in vitro criterion to select therapeutic peptides for systemic applications, yielded very short half-life times of 5 min for Api88, which indicate ...

Data set [2] relates to E. coli ATCC 25922. Conditions: same infection model; ref Schmidt et al., 2016; cited from earlier work.
From the text: as §1, with “[…] Api137 appeared more efficient in this septicemia model due to” for “For example,”, “better scores obtained” for “diabetes peptide drugs exenatide and pramlintide are given”, “at” for “at daily doses of 20 μg (Byetta®; ~0.5 μg/kg) and 120 μg (Symlin®; ~1.5 μg/kg; Heine et al., [2005]; Hay et al., [2015])”

The conditions of data set [3]: mouse, in vivo, ip, 5 mg/kg; cited from earlier work. From the text: The recovery rates obtained from the spiked samples, were used to calculate the total amounts of intact peptides in blood, liver, and kidneys after intraperitoneal administration (Figures 6B–E, Tables S10, S11). The relative recovery in the studied organs and blood was only around 1.5 ± 0.6–2.1 ± 0.7% of the injected peptide amounts. Considering the mean weight of 29 g per mouse in this study and the weights of blood, liver, two kidneys, and brain with 2.2, 1.5, 0.5, and 0.5 g, respectively (~16% of the total weight), around 12% of the injected peptide quantities were detected in the samples c ...

The conditions of data set [4]: mouse, in vivo, ip; cited from earlier work. From the text:
Apidaecin analogs Api88 and Api137 are similarly active against Gram-negative bacteria with a tendency of higher activity of Api88 against K. pneumoniae (Czihal et al., [2012]; Berthold et al., [2013]). However, Api88 carries a C-terminal amide that is responsible for its very fast proteolytic cleavage in serum, the supernatant obtained after complete coagulation and centrifugation of blood. The in vitro serum stability assay, which is an important in vitro criterion to select therapeutic peptides for systemic applications, yielded very short half-life times of 5 min for Api88, which indicate ...

The nature of another data set: in vitro. It is filed as in vitro ADME, CD-1 mice. Conditions: female, CD-1, mouse, cerebrospinal or other body fluid. On the procedure: Peritoneal lavage (1.5–2 mL) were collected from three euthanized female CD-1 mice (14 weeks, 32–33 g) after injecting sterile PBS intraperitoneal (4 mL). Peptides were incubated with aliquots (95 μL) of fresh lavage (75 μg/mL, 37°C, 750 rpm). After 0, 30, and 60 min trichloroacetic acid (25 μL, 15% w/v) was added to the samples to precipitate proteins, incubated on ice (10 min), and centrifuged (5 min, 12.400 × g). Supernatants were neutralized with sodium hydroxide (1 mol/L) and analyzed by RP-HPLC using a Poroshell 120 SB-C18-column (2.1 mm internal diameter, 100 mm length, 2.7 μm particle size, 12 nm pore size, Agilent Technologies Inc., Santa Clara, CA, USA) at 60°C and an aqueous acetonitrile gradient containing trifluoroacetic acid (0.1%, v/v). Absorbance was recorded at a wavelength of 214 nm.

Another data set deals with 70S ribosomes. Conditions: fluorescence polarization assay; ref Krizsan et al., 2014; cited from earlier work. The text has this: Antimicrobial peptides (AMPs) are considered as promising alternatives to common antibiotics that threateningly lose their therapeutic potentials against multidrug-resistant pathogens (Fox, [2013]; Wang et al., [2015]). In contrast to approved therapeutic peptide hormones, antimicrobial peptides have to be administered at much higher doses, which may amplify general drawbacks of peptide therapeutics. For example, the diabetes peptide drugs exenatide and pramlintide are given at daily doses of 20 μg (Byetta®; ~0.5 μg/kg) and 120 μg (Symlin®; ~1.5 μg/kg; Heine et al., [2005]; Hay et al., [2015]) ...
Background: In fluorescence polarisation assays a small probe gives low polarisation when free and higher when bound to something large.

The conditions of data set [5]: cited from earlier work. The text has this:
Proline-rich antimicrobial peptides (PrAMPs) represent promising alternative therapeutic options for the treatment of multidrug-resistant bacterial infections. PrAMPs are predominantly active against Gram-negative bacteria by inhibiting protein expression via at least two different modes of action, i.e., blocking the ribosomal exit tunnel of 70S ribosomes (oncocin-type binding) or inhibiting the assembly of the 50S ribosomal subunit (apidaecin-type binding). The in vivo efficacy and favorable biodistribution of oncocins confirmed the therapeutic potential of short PrAMPs for the first time, wh ... || Antimicrobial peptides (AMPs) are considered as promising alternatives to common antibiotics that threateningly lose their therapeutic potentials against multidrug-resistant pathogens (Fox, [2013]; Wang et al., [2015]). In contrast to approved therapeutic peptide hormones, antimicrobial peptides have to be administered at much higher doses, which may amplify general drawbacks of peptide therapeutics. […]

The nature of data set [6]: liver homogenates after intraperitoneal administration. Conditions: NMRI mice, up to 90 min.
Data set [7] can be described thus: plasma after intravenous administration. The conditions noted are these: CD-1 mice, up to 60 min.
A further data set can be described thus: mouse serum in vitro. The conditions noted are these: cited from earlier work.
Data set [8] is described as follows: Lithium-heparin plasma after intraperitoneal administration. The conditions noted are these: NMRI mice, up to 90 min.
Data set [9] in a line: fresh peritoneal lavage (PBS injected intraperitoneal), ex vivo. The conditions noted are these: CD-1 mice, 37°C, up to 60 min.
Where [10] appears, read: metabolites, in vitro, no method in this paper, reference not given.
Where [11] appears, read: E. coli ATCC 25922, ref Knappe et al., 2016c.

The source of these data is PMC5357639 (Frontiers in Chemistry, 2017).

≈ marks a conversion by molar mass, not a printed value. Entries after “also recorded” stand apart in the source; their conditions may differ. Read-outs that look alike come from different tables or passages of the source. Where a SMILES comes first, the peptide text is derived from it. [ ]: non-standard residue; d: D form. The star is where a group is joined. Orn(α-tetramethylguanidino) = CN(C)C(=N[C@@H](CCCN)C(=O)*)N(C)C; Orn = NCCC[C@H](N)C(=O)O

As to `CC[C@H](C)[C@H](NC(=O)[C@H](Cc1ccc(O)cc1)NC(=O)[C@@H](NC(=O)[C@@H]1CCCN1C(=O)[C@H](CCCNC(=N)N)NC(=O)[C@H](CC(N)=O)NC(=O)[C@H](CC(N)=O)NC(=O)[C@H](CCCN)N=C(N(C)C)N(C)C)C(C)C)C(=O)N1CCC[C@H]1C(=O)N[C@@H](CCCNC(=N)N)C(=O)N1CCC[C@H]1C(=O)N[C@@H](CCCNC(=N)N)C(=O)N1CCC[C@H]1C(=O)N1CCC[C@H]1C(=O)N[C@@H](Cc1c[nH]cn1)C(=O)N1CCC[C@H]1C(=O)O` [Api1-16] ({Orn(α-tetramethylguanidino)}-NNRPVYIPRPRPPHP-OH), in the data set with E. coli ATCC 25922 [1] (setting [10]), the MIC was greater than 128 µg/mL.

Turning to `CC[C@H](C)[C@H](NC(=O)[C@H](Cc1ccc(O)cc1)NC(=O)[C@@H](NC(=O)[C@@H]1CCCN1C(=O)[C@H](CCCNC(=N)N)NC(=O)[C@H](CC(N)=O)NC(=O)[C@H](CC(N)=O)NC(=O)[C@H](CCCN)N=C(N(C)C)N(C)C)C(C)C)C(=O)N1CCC[C@H]1C(=O)N[C@@H](CCCNC(=N)N)C(=O)N1CCC[C@H]1C(=O)N[C@@H](CCCNC(=N)N)C(=O)N1CCC[C@H]1C(=O)N1CCC[C@H]1C(=O)N[C@@H](Cc1c[nH]cn1)C(=O)N1CCC[C@H]1C(=O)N[C@@H](CCCNC(=N)N)C(=O)O` [Api1-17] ({Orn(α-tetramethylguanidino)}-NNRPVYIPRPRPPHPR-OH), the MIC with E. coli ATCC 25922 [1] (setting [10]) was 64 µg/mL.

For `CC[C@H](C)[C@H](NC(=O)[C@H](CCCN)NC(=O)[C@H](CCCNC(=N)N)NC(=O)[C@@H]1CCCN1C(=O)[C@@H]1CCCN1C(=O)[C@H](CCCNC(=N)N)NC(=O)[C@@H]1CCCN1C(=O)[C@H](CCCNC(=N)N)NC(=O)[C@@H]1CCCN1C(=O)[C@H](CC(C)C)NC(=O)[C@H](Cc1ccc(O)cc1)NC(=O)[C@@H]1CCCN1C(=O)[C@@H]1CCCN1C(=O)[C@H](CCCCN)NC(=O)[C@H](CC(=O)O)NC(=O)[C@@H](N)C(C)C)C(=O)N[C@@H](Cc1ccc(O)cc1)C(=O)N[C@@H](CC(N)=O)C(=O)N[C@@H](CCCN)C(N)=O` [Onc72, reference compound] (H-VDKPPYLPRPRPPR[Orn]IYN[Orn]-NH2; N-terminus and C-terminus assumed), the maximum plasma levels relative to Api88 and Api137 is less than 10 fold. The “Dose rescuing all animals” value with E. coli ATCC 25922 [2] was 5 mg/kg. Also, in [3], the “Recovery rate of injected peptide” value is listed as 47%. In data set [4], the “Maximum plasma level reported for oncocins, compared with lower dose groups” value is 6 µg/mL and the “Plasma level reported for oncocin, compared with high dose groups” value was 18000 ng/mL. Also, the amount remaining at 1 h, 75 μg/mL in “in vitro” is greater than 89%. For the same molecule, the MIC in the data set on E. coli ATCC 25922 [1] (setting [11]) was 16 µg/mL (≈ 6.94 µM). Moreover, at 70S ribosomes, the equilibrium dissociation constant (Kd) is 450 nM.

The molecule `CC[C@H](C)[C@H](NC(=O)[C@@H](CCCNC(=N)N)NC(=O)[C@H](CCCNC(=N)N)NC(=O)[C@@H]1CCCN1C(=O)[C@@H]1CCCN1C(=O)[C@H](CCCNC(=N)N)NC(=O)[C@@H]1CCCN1C(=O)[C@H](CCCNC(=N)N)NC(=O)[C@@H]1CCCN1C(=O)[C@H](CC(C)C)NC(=O)[C@H](Cc1ccc(O)cc1)NC(=O)[C@@H]1CCCN1C(=O)[C@@H]1CCCN1C(=O)[C@H](CCCCN)NC(=O)[C@H](CC(=O)O)NC(=O)[C@@H](N)C(C)C)C(=O)N[C@@H](Cc1ccc(O)cc1)C(=O)N[C@@H](CC(N)=O)C(=O)N[C@H](CCCNC(=N)N)C(N)=O` [Onc112, reference compound] (H-VDKPPYLPRPRPPR[dR]IYN[dR]-NH2; N-terminus and C-terminus assumed) registered a maximum plasma levels relative to Api88 and Api137 of less than 10 fold. Besides, the “Dose rescuing all animals” value with E. coli ATCC 25922 [2] is reported as 2.5 mg/kg. For the same molecule, the “Recovery rate of injected peptide” value in data set [3] is on record as 32%. Moreover, the “Maximum plasma level reported for oncocins, compared with lower dose groups” value in data set [4] is 8 µg/mL. In addition, the Serum half-life time result in data set [5] was “exceeded 8 h”. In “in vitro”, this molecule came in with a fraction remaining at 1 h, 75 μg/mL greater than 89%. Further, the MIC with E. coli ATCC 25922 [1] (setting [11]) is 4 µg/mL (≈ 1.67 µM). The Kd at 70S ribosomes is 90 nM.

Regarding gu-ONNRPVYIPRPRPPHPRL-NH2, the fragment found result is given as “Api1-17, major; also recorded: Api1-16, major” in data set [6]; “Api1-17, major, 5 min; also recorded: Api1-16, major, 5 min” in [7]; “Api1-17, major; also recorded: Api1-16, major” in the data set “mouse serum in vitro”; “Api1-16, major, 10 min; also recorded: Api2-16; also recorded: Api7-18; also recorded: Api3-18; also recorded: Api7-12; also recorded: Api1-6; also recorded: Api1-17, major, 10 min” in data set [8]; “Api1-17, major, 30 min” in data set [9].

With gu-ONNRPVYIPRPRPPHPRL-OH, the fragment found result in [6] is on record as “Api1-17, major; also recorded: Api1-16, major”; in the data set “mouse serum in vitro”, “Api1-17, major; also recorded: Api1-16, major”; in data set [8], “Api1-17, major, 10 min; also recorded: Api1-16, major, 10 min; also recorded: Api7-12, minor; also recorded: Api2-16, minor; also recorded: Api2-18, minor”; in data set [9] it was “Api1-17, major, 30 min”.

Usually MIC stands for the least concentration at which growth counts as inhibited. What is called share remaining is the share of the starting amount still present when the sample was taken. A higher share remaining goes with less turnover. In general, Kd refers to the free concentration of one partner at which half of the binding sites on the other are occupied at equilibrium, for simple one-to-one binding.
